Source: ChEMBL document CHEMBL4043177 (Bioorg Med Chem, 2017)

Legend:
[1] = target: T1, Orexin/Hypocretin receptor type 1 (Homo sapiens, UniProt O43613); test: Antagonist activity at human OX1R expressed in CHO cells assessed as reduction in [Ala6,12]orexin-A-induced intracellular Ca2+ mobilization incubated for 30 mins by Fluo-4AM dye based fluorescence assay; assay type: functional, cell-based
T1 sequence (O43613 whole entry): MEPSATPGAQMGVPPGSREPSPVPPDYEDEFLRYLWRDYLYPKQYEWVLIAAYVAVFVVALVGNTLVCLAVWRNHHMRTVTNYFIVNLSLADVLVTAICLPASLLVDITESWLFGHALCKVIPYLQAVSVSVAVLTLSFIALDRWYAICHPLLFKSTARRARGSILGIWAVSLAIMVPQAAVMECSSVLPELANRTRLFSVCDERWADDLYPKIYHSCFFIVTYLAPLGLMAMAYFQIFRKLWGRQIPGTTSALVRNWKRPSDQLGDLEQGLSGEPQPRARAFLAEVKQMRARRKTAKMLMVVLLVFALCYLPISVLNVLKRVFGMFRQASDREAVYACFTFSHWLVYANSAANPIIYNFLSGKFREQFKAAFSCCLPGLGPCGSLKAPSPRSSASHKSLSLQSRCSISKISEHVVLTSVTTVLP

Orexin receptor type 2 = target: T2, Orexin receptor type 2 (Homo sapiens, UniProt O43614); test: Antagonist activity at human OX2R expressed in CHO cells assessed as reduction in [Ala6,12]orexin-A-induced intracellular Ca2+ mobilization incubated for 30 mins by Fluo-4AM dye based fluorescence assay; assay type: functional, cell-based
T2 sequence (O43614 whole entry): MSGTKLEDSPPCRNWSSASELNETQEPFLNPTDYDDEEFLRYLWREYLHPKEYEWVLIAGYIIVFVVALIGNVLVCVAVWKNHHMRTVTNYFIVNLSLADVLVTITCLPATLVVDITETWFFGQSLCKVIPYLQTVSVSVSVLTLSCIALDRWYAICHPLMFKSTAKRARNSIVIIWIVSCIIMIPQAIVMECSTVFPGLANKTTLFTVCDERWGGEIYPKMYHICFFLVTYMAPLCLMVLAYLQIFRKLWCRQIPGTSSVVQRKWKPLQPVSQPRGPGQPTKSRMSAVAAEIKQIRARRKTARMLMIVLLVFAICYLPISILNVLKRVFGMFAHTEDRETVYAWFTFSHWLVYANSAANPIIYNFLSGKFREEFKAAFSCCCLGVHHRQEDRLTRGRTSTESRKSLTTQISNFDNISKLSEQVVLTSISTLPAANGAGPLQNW

Homo sapiens [2] = species: Homo sapiens; test: Selectivity index, ratio of IC50 for human OX2R expressed in CHO cells to IC50 for human OX1R expressed in CHO cells; assay type: cell-based
Homo sapiens [3] = species: Homo sapiens; test: Selectivity index, ratio of IC50 for OX2R expressed in CHO cells to IC50 for human OX1R expressed in CHO cells; assay type: cell-based

| Structure (SMILES) | IC50 [1] | IC50 (Orexin receptor type 2) | Ratio IC50 (Homo sapiens [2]) | Ratio IC50 (Homo sapiens [3]) |
| --- | --- | --- | --- | --- |
| CCN(C(=O)c1ccccc1-n1nccn1)[C@@H](C)Cn1nnc(-c2ccc(F)cc2)n1 | 2.45 nM | 61 nM | 25 | – |
| CCN(C(=O)c1cc(C)ccc1-n1nccn1)[C@@H](C)Cc1noc(-c2ccc(F)cn2)n1 | 1.26 nM | 11.3 nM | 9 | – |
| CCN(C(=O)c1cc(F)ccc1-n1nccn1)[C@@H](C)Cn1nnc(-c2ccc(F)cc2)n1 | 3.06 nM | 139 nM | 45 | – |
| CCN(C(=O)c1cc(F)ccc1-n1nccn1)[C@@H](C)Cc1noc(-c2ccc(F)cn2)n1 | 14.7 nM | 887 nM | 60 | – |
| CCN(C(=O)c1nc(C)ccc1-n1nccn1)[C@@H](C)Cn1nnc(-c2ccc(F)cc2)n1 | 1.84 nM | 119 nM | 65 | – |
| Cc1ccc(-n2nccn2)c(C(=O)NCCn2cc(-c3ccc(F)cn3)cn2)c1 | 908 nM | – | – | – |
| CCN(C(=O)c1cc(C)ccc1-n1nccn1)[C@@H](C)Cn1nnc(-c2ccc(F)cc2)n1 | 0.82 nM | 2.57 nM | 3.1 | – |
| CCN(C(=O)c1cc(C)ccc1-n1nccn1)[C@@H](C)Cn1nnc(-c2ccc(F)cn2)n1 | 1.1 nM | 17.9 nM | 16 | – |
| CCN(C(=O)c1cc(C)ccc1-n1nccn1)[C@H](C)Cn1ccc(-c2ccc(F)cn2)n1 | 86.6 nM | 250 nM | 2.9 | – |
| CCN(C(=O)c1cc(C)ccc1-n1nccn1)[C@@H](C)Cn1ccc(-c2ccc(F)cn2)n1 | 1.62 nM | 1.61 nM | 1 | – |
| CC[C@@H](Cn1ccc(-c2ccc(F)cn2)n1)N(C)C(=O)c1cc(C)ccc1-n1nccn1 | 4.39 nM | 29 nM | 6.6 | – |
| CCN(C(=O)c1cc(F)ccc1-c1ncccn1)[C@@H](C)Cc1noc(-c2ccc(F)cc2)n1 | 1.58 nM | 80.1 nM | 51 | – |
| CCN(C(=O)c1cc(F)ccc1-n1nccn1)[C@@H](C)Cn1nnc(-c2ccc(F)cn2)n1 | 9.45 nM | 471 nM | 50 | – |
| CCN(C(=O)c1cc(C)ccc1-n1nccn1)[C@@H](C)Cn1cc(-c2ccc(F)cn2)cn1 | 0.767 nM | 5.87 nM | 7.7 | – |
| CCN(C(=O)c1cc(C)ccc1-c1ncccn1)[C@@H](C)Cn1nnc(-c2ccc(F)cn2)n1 | 10.6 nM | 129 nM | 12 | – |
| CCN(C(=O)c1ccccc1-n1nccn1)[C@@H](C)Cc1noc(-c2ccc(F)cc2)n1 | 1.25 nM | 11.6 nM | 9.3 | – |
| Cc1nc2ccc(NC(=O)Nc3ccnc4cccnc34)cc2o1 | – | – | – | 50 |
| Cc1ccc(-n2nccn2)c(C(=O)N(C)[C@@H](C)Cn2cc(-c3ccc(F)cn3)cn2)c1 | 4.39 nM | 21.2 nM | 4.8 | – |

| Structure (SMILES) | IC50 [1] | IC50 (Orexin receptor type 2) | Ratio IC50 (Homo sapiens [2]) | Ratio IC50 (Homo sapiens [3]) |
| --- | --- | --- | --- | --- |
| Cc1ccc(-n2nccn2)c(C(=O)N(C)CCn2ccc(-c3ccc(F)cn3)n2)c1 | – | 11.9 nM | 2.1 | – |
| CCN(C(=O)c1cc(C)ccc1-c1ncccn1)[C@@H](C)Cc1noc(-c2ccc(F)cn2)n1 | 3.24 nM | 43.2 nM | 13 | – |
| Cc1ccc(-n2nccn2)c(C(=O)N[C@@H](C)Cn2ccc(-c3ccc(F)cn3)n2)c1 | 10.1 nM | 58.4 nM | 5.8 | – |
| CCN(C(=O)c1nc(C)ccc1-c1ncccn1)[C@@H](C)Cc1noc(-c2ccc(F)cc2)n1 | 3.58 nM | 254 nM | 71 | – |
| CCN(C(=O)c1cc(F)ccc1-n1nccn1)[C@@H](C)Cc1noc(-c2ccc(F)cc2)n1 | 1.26 nM | 23.6 nM | 19 | – |
| Cc1ccc(-n2nccn2)c(C(=O)N(C)CCn2cc(-c3ccc(F)cn3)cn2)c1 | 56.1 nM | 51.7 nM | 0.92 | – |
| Cc1ccc(-n2nccn2)c(C(=O)N[C@@H](C)Cn2cc(-c3ccc(F)cn3)cn2)c1 | 245 nM | 840 nM | 3.4 | – |
| CCN(C(=O)c1cc(C)ccc1-n1nccn1)[C@@H](C)Cn1cc(-c2ccc(F)cn2)nn1 | 1.93 nM | 22.8 nM | 12 | – |
| CCN(C(=O)c1cc(C)ccc1-n1nccn1)[C@@H](C)Cc1noc(-c2ccc(F)cc2)n1 | 1.07 nM | 2.73 nM | 2.6 | – |
| CCN(C(=O)c1nc(C)ccc1-n1nccn1)[C@@H](C)Cc1noc(-c2ccc(F)cc2)n1 | 1.82 nM | 40.5 nM | 22 | – |
| Cc1ccc(-n2nccn2)c(C(=O)N(C)[C@H](Cn2ccc(-c3ccc(F)cn3)n2)C(C)C)c1 | 61.5 nM | 952 nM | 16 | – |
| CCN(CCn1ccc(-c2ccc(F)cn2)n1)C(=O)c1cc(C)ccc1-n1nccn1 | 3.22 nM | 2.81 nM | 0.87 | – |
| CCN(C(=O)c1cc(C)ccc1-c1ncccn1)[C@@H](C)Cn1nnc(-c2ccc(F)cc2)n1 | 1.81 nM | 36 nM | 20 | – |
| Cc1ccc(-n2nccn2)c(C(=O)N(C)[C@@H](C)Cn2ccc(-c3ccc(F)cn3)n2)c1 | 1.9 nM | 5.68 nM | 3 | – |
| Cc1ccc(-n2nccn2)c(C(=O)NCCn2ccc(-c3ccc(F)cn3)n2)c1 | 119 nM | 198 nM | 1.7 | – |
| CCN(CCn1cc(-c2ccc(F)cn2)cn1)C(=O)c1cc(C)ccc1-n1nccn1 | 9.06 nM | 14.2 nM | 1.6 | – |
| CCN(C(=O)c1cc(C)ccc1-c1ncccn1)[C@@H](C)Cc1noc(-c2ccc(F)cc2)n1 | – | 8.85 nM | 6.3 | – |
